One may read the IC50 as the concentration at which inhibition is half-maximal. The low end stands for greater potency, the high end for weaker potency.

Type in all cases: cell-based
One test deals with K562 cells. The test is described as follows: K562 cell proliferation inhibition, CCK-8. As to conditions: K562, 4 days. On the procedure:
The complete medium required for K562 cells is IMDM (ATCC, Product number: 30-2005) basal medium containing 10% fetal bovine serum. K562 cells were seeded in a 96-well plate at a density of 7,500 cells/well, and different concentrations of the compound of the present invention and positive control samples Alisertib (source: Bide Pharmaceuticals) and dBET6 (source: Bide Pharmaceuticals) were prepared to treat the cells. The cells were incubated at a 37° C., 5% CO2 cell culture incubator for 4 days.
Cell viability was detected using the CCK-8 kit (Beyotime, Product number: C0040) according to the manufacturer's instructions. According to the inhibition rate, GraphPad Prism software was used to calculate the IC50 value of each compound for 4 days, and the results are shown in Table 11-12.

The next test deals with MV-4-11 cells. The test is described as follows: MV-4-11 cell proliferation inhibition, CCK-8. As to conditions: Homo sapiens, MV4-11, 96 h, MV-4-11, 4 days. The method, then: The complete medium required for MV-4-11 cells is IMDM (ATCC, Product number: 30-2005) basal medium containing 10% fetal bovine serum. MV-4-11 cells were seeded in a 96-well plate at a density of 7,500 cells/well, and different concentrations of the compound of the present invention and positive control samples Alisertib (source: Bide Pharmaceuticals), Palbociclib (source: Bide Pharmaceuticals), Ibrutinib (source Bide Pharmaceuticals) treated cells. The cells were incubated in a 37° C., 5% CO2 cell incubator for 4 days. Cell viability was detected using the CCK-8 kit (Beyotime, Product number: C0040) according to the manufacturer's instructions. According to the inhibition rate, GraphPad Prism software was used to calculate the IC50 value of each compound for 4 days, and the results are shown in Table 6-8.

The test system of the next test is MOLM-13 cells. The test is described as follows: MOLM-13 cell proliferation inhibition, CCK-8. To be noted: Homo sapiens, 96 h, MOLM-13, 4 days, Table 10. On the procedure: The complete medium required for MOLM-13 cells is 1640 (ATCC, Product number: 30-2001) basal medium containing 20% fetal bovine serum. MOLM-13 cells were seeded in a 96-well plate at a density of 7,500 cells/well, and different concentrations of the compounds of the present invention were prepared to treat the cells at the same time. The cells were incubated in a 37° C., 5% CO2 cell culture incubator for 4 days. Cell viability was detected using the CCK-8 kit (Beyotime, Product number: C0040) according to the manufacturer's instructions. According to the inhibition rate, GraphPad Prism software was used to calculate the IC50 value of each compound for 4 days, and the results are shown in Table 9-10.

The mark [1] stands for this setting: Homo sapiens, 96 h, Table 11, positive control Alisertib.
Setting [2] is: Table 6, positive control Alisertib.
Where [3] appears, read: Homo sapiens, 96 h, Table 12, positive control dBET6.
Where [4] appears, read: Table 7, positive control Palbociclib.

As to `COc1cc(Nc2ncc3c(n2)-c2ccc(Cl)cc2C(c2c(F)cccc2OC)=NC3)ccc1C(=O)O` [Alisertib, reference compound], the figures for the IC50 in the test with K562 cells (setting [1]) and with MV-4-11 cells (setting [2]) were 3770 nM and 26 nM, respectively.
With `COc1cc(Nc2ncc3c(n2)-c2ccc(Cl)cc2C(c2c(F)cccc2OC)=NC3)ccc1C(=O)N1CCC2(CCc3cc4c(cc3O2)CN(C2CCC(=O)NC2=O)C4=O)CC1` (stereo not drawn) [PROTAC 1, 3-(1-(4-((9-chloro-7-(2-fluoro-6-methoxyphenyl)-5H-benzo[c]pyrimido[4,5-e]azepine-2-yl)amino)-2-methoxybenzoyl)-6′-oxo-3′,4′,6′,8′-tetrahydro-7′H-spiro[piperidine-4,2′-pyrano[2,3-f]isoindol]-7′-yl)piperidine-2,6-dione], the half-inhibitory concentration (IC50) was 150 nM with K562 cells (setting [1]) and 120 nM in the test on MV-4-11 cells (setting [2]).
Turning to `COc1cc(Nc2ncc3c(n2)-c2ccc(Cl)cc2C(c2c(F)cccc2OC)=NC3)ccc1C(=O)N1CC2(CCc3cc4c(cc3O2)CN(C2CCC(=O)NC2=O)C4=O)C1` (stereo not drawn) [PROTAC 3, 3-(1-(4-((9-chloro-7-(2-fluoro-6-methoxyphenyl)-5H-benzo[c]pyrimido[4,5-e]azepine-2-yl)amino)-2-methoxybenzoyl)-6′-oxo-3′,4′,6′,8′-tetrahydro-7′H-spiro[azetidine-3,2′-pyrano[2,3-f]isoindole]-7′-yl)piperidine-2,6-dione], the IC50 was determined as 410 nM with K562 cells (setting [1]) and 77 nM in the test with MV-4-11 cells (setting [2]).
With `COc1cc(Nc2ncc3c(n2)-c2ccc(Cl)cc2C(c2c(F)cccc2OC)=NC3)ccc1C(=O)N1CC2(CCc3cc4c(cc3O2)C(=O)N(C2CCC(=O)NC2=O)C4)C1` (stereo not drawn) [PROTAC 4, 3-(1-(4-((9-chloro-7-(2-fluoro-6-methoxyphenyl)-5H-benzo[c]pyrimido[4,5-e]azepine-2-yl)amino)-2-methoxybenzoyl)-8′-oxo-3′,4′,6′,8′-tetrahydro-7′H-spiro[azetidine-3,2′-pyrano[2,3-f]isoindole]-7′-yl)piperidine-2,6-dione], the IC50 in the test with K562 cells (setting [1]) is 220 nM; in the test with MV-4-11 cells (setting [2]), 25 nM.
The corresponding values for `COc1cc(Nc2ncc3c(n2)-c2ccc(Cl)cc2C(c2c(F)cccc2OC)=NC3)ccc1C(=O)NCCOCCC(=O)N1CCC2(CC1)COc1cc3c(cc12)C(=O)N(C1CCC(=O)NC1=O)C3=O` (stereo not drawn) [PROTAC 7, 4-((9-chloro-7-(2-fluoro-6-methoxyphenyl)-5H-benzo[c]pyrimido[4,5-e]azepine-2-yl)amino)-N-(2-(3-(6-(2,6-dioxopiperidin-3-yl)-5,7-dioxo-6,7-dihydro-2H,5H-spiro[furan [2,3-f]isoindole-3,4′-piperidin]-1′-yl)-3-oxopropoxy)ethyl)-2-methoxybenzamide] are 1470 nM and 360 nM.
The compound `Cc1nc(Nc2ncc(C(=O)Nc3c(C)cccc3Cl)s2)cc(N2CCN(CCOCCC(=O)N3CC4(CCc5cc6c(cc5O4)C(=O)N(C4CCC(=O)NC4=O)C6)C3)CC2)n1` (stereo not drawn) [PROTAC 14, N-(2-chloro-6-methylphenyl)-2-((6-(4-(2-(3-(7′-(2,6-dioxopiperidin-3-yl)-8′-oxo-4′,6′,7′,8′-tetrahydro-3′H-spiro[azetidine-3,2′-pyrano[2,3-f]isoindol]-1-yl)-3-oxopropoxy)ethyl)piperazin-1-yl)-2-methylpyrimidin-4-yl)amino)thiazole-5-carboxamide] gave an IC50 with K562 cells (setting [3]) of 57 nM.
In the test on K562 cells (setting [3]), `Cc1nc(Nc2ncc(C(=O)Nc3c(C)cccc3Cl)s2)cc(N2CCN(CCOCCC(=O)N3CCC4(CC3)COc3cc5c(cc3O4)CN(C3CCC(=O)NC3=O)C5=O)CC2)n1` (stereo not drawn) [PROTAC 15, N-(2-chloro-6-methylphenyl)-2-((6-(4-(2-(3-(7′-(2,6-dioxopiperidin-3-yl)-6′-oxo-7′,8′-dihydro-3′H,6′H-spiro[piperidine-4,2′-[1,4]dioxino[2,3-f]isoindol]-1-yl)-3-oxopropoxy)ethyl)piperazin-1-yl)-2-methylpyrimidin-4-yl)amino)thiazole-5-carboxamide] displayed an IC50 of 5 nM. Compared with the last compound, the IC50 is about 11-fold lower.
For `Cc1nc(Nc2ncc(C(=O)Nc3c(C)cccc3Cl)s2)cc(N2CCN(CCOCCC(=O)N3CC4(CCc5cc6c(cc5O4)CN(C4CCC(=O)NC4=O)C6=O)C3)CC2)n1` (stereo not drawn) [PROTAC 16, N-(2-chloro-6-methylphenyl)-2-((6-(4-(2-(3-(7′-(2,6-dioxopiperidin-3-yl)-6′-oxo-4′,6′,7′,8′-tetrahydro-3′H-spiro[azetidine-3,2′-pyrano[2,3-f]isoindole]-1-yl)-3-oxopropoxy)ethyl)piperazin-1-yl)-2-methylpyrimidin-4-yl)amino)thiazole-5-carboxamide], in the test with K562 cells (setting [3]), the IC50 came out at 48 nM.
Take `CC(=O)c1c(C)c2cnc(Nc3ccc(N4CCN(CCOCCC(=O)N5CC6(CCc7cc8c(cc7O6)C(=O)N(C6CCC(=O)NC6=O)C8=O)C5)CC4)cn3)nc2n(C2CCCC2)c1=O` (stereo not drawn) [PROTAC 39, 1-(3-(2-(4-(6-((6-acetyl-8-cyclopentyl-5-methyl-7-oxo-7,8-dihydropyridone[2,3-d]pyrimidin-2-yl)amino)pyridin-3-yl)piperazin-1-yl)ethoxy)propionyl)-7′-(2,6-dioxopiperidin-3-yl)-3′,4′-dihydro-6′H-spiro[azetidine-3,2′-pyrano[2,3-f]isoindole]-6′,8′(7′ H)-dione]: the IC50 in the test on MV-4-11 cells (setting [4]) was 12700 nM; in the test with MOLM-13 cells it was 12.4 µM.
On to `CC(=O)c1c(C)c2cnc(Nc3ccc(N4CCN(CCOCCC(=O)N5CCC6(CC5)COc5cc7c(cc5C6)C(=O)N(C5CCC(=O)NC5=O)C7=O)CC4)cn3)nc2n(C2CCCC2)c1=O` (stereo not drawn) [PROTAC 40, 1-(3-(2-(4-(6-((6-acetyl-8-cyclopentyl-5-methyl-7-oxo-7,8-dihydropyridone[2,3-d]pyrimidin-2-yl)amino)pyridin-3-yl)piperazin-1-yl)ethoxy)propionyl)-7′-(2,6-dioxopiperidin-3-yl)-2′H-spiro[piperidine-4,3′-pyrano[2,3-f]isoindole]-6′,8′(4′H,7′H)-dione], for which inhibition with MOLM-13 cells was half-maximal at 4.87 µM (IC50).
Consider `CC(=O)c1c(C)c2cnc(Nc3ccc(N4CCN(CCOCCC(=O)N5CCC6(CC5)COc5cc7c(cc56)C(=O)N(C5CCC(=O)NC5=O)C7=O)CC4)cn3)nc2n(C2CCCC2)c1=O` (stereo not drawn) [PROTAC 41, 1′-(3-(2-(4-(6-((6-acetyl-8-cyclopentyl-5-methyl-7-oxo-7,8-dihydropyridone[2,3-d]pyrimidin-2-yl)amino)pyridin-3-yl)piperazin-1-yl)ethoxy)propionyl)-6-(2,6-dioxopiperidin-3-yl)-6-hydro-2H,5H-spiro[furo[2,3-f]isoindole-3,4′-piperidine]-5,7-dione], for which the IC50 in the test on MV-4-11 cells (setting [4]) turned out to be 2160 nM; with MOLM-13 cells, 2.19 µM.
The corresponding values for `CC(=O)c1c(C)c2cnc(Nc3ccc(N4CCN(CCOCCC(=O)N5CCC6(CCc7cc8c(cc7O6)C(=O)N(C6CCC(=O)NC6=O)C8)CC5)CC4)cn3)nc2n(C2CCCC2)c1=O` (stereo not drawn) [PROTAC 42, 3-(1-(3-(2-(4-(6-((6-acetyl-8-cyclopentyl-5-methyl-7-oxo-7,8-dihydropyridone[2,3-d]pyrimidin-2-yl)amino)pyridin-3-yl)piperazin-1-yl)ethoxy)propionyl)-8′-oxo-3′,4′,6′,8′-tetrahydro-7′H-spiro[piperidine-4,2′-pyrano[2,3-f]isoindole]-7′-yl)piperidine-2,6-dione] are 940 nM and 0.83 µM.
With `Cc1sc2c(c1C)C(c1ccc(Cl)cc1)=N[C@@H](CC(=O)NCCCCCCCCNC(=O)COc1cccc3c1C(=O)N(C1CCC(=O)NC1=O)C3=O)c1nnc(C)n1-2` (stereo partly drawn) [dBET6, reference compound], in the test on K562 cells (Table 12, positive control dBET6), the IC50 was 1 nM.

Values taken from patent US20250129088A1, “CEREBLON E3 UBIQUITIN LIGASE INHIBITOR” (Gan & Lee Pharmaceuticals Co., Ltd., priority 2022, published 2025).
